Data: ChEMBL document CHEMBL3044672, “N9- and N7-(Chloromethyl Phenymethyl)Chloropurine Derivatives from , '-Dichloroxylenes: Synthesis and Anticancer Activity” (2005)

Experiments:
Assay type in all cases: functional
A498 = test: Cytotoxicity against Homo sapiens (human) A498 cells after 48 hr by sulforhodamine B assay; details: A498, 48 h
ACHN = test: Cytotoxicity against Homo sapiens (human) ACHN cells after 48 hr by sulforhodamine B assay
786-0 = test: Cytotoxicity against Homo sapiens (human) 786-0 cells after 48 hr by sulforhodamine B assay; details: 786-0, 48 h
OVCAR-5 = test: Cytotoxicity against Homo sapiens (human) OVCAR5 cells after 48 hr by sulforhodamine B assay; details: OVCAR-5, 48 h
IGROV-1 = test: Cytotoxicity against Homo sapiens (human) IGROV1 cells after 48 hr by sulforhodamine B assay; details: IGROV-1, 48 h
OVCAR-3 = test: Cytotoxicity against Homo sapiens (human) OVCAR3 cells after 48 hr by sulforhodamine B assay; details: OVCAR-3, 48 h
UACC-257 = test: Cytotoxicity against Homo sapiens (human) UACC257 cells after 48 hr by sulforhodamine B assay; details: UACC-257, 48 h
SK-MEL-28 = test: Cytotoxicity against Homo sapiens (human) SK-MEL-28 cells after 48 hr by sulforhodamine B assay; details: SK-MEL-28, 48 h
SK-MEL-2 = test: Cytotoxicity against Homo sapiens (human) SK-MEL-2 cells after 48 hr by sulforhodamine B assay; details: SK-MEL-2, 48 h
M14 = test: Cytotoxicity against Homo sapiens (human) M14 cells after 48 hr by sulforhodamine B assay; details: M14, 48 h
U-251 = test: Cytotoxicity against Homo sapiens (human) U251 cells after 48 hr by sulforhodamine B assay; details: U-251, 48 h
T47D = test: Cytotoxicity against Homo sapiens (human) T47D cells after 48 hr by sulforhodamine B assay
MDA-MB-435 = test: Cytotoxicity against Homo sapiens (human) MDA-MB-435 cells after 48 hr by sulforhodamine B assay; details: MDA-MB-435, 48 h
Hs-578T = test: Cytotoxicity against Homo sapiens (human) Hs 578T cells after 48 hr by sulforhodamine B assay
[1] = Cytotoxicity against Homo sapiens (human) NCI-ADR-RES cells after 48 hr by sulforhodamine B assay
DU-145 = test: Cytotoxicity against Homo sapiens (human) DU145 cells after 48 hr by sulforhodamine B assay; details: DU-145, 48 h
UO-31 = test: Cytotoxicity against Homo sapiens (human) UO31 cells after 48 hr by sulforhodamine B assay; details: UO-31, 48 h
TK-10 = test: Cytotoxicity against Homo sapiens (human) TK10 cells after 48 hr by sulforhodamine B assay; details: TK-10, 48 h
CAKI-1 = test: Cytotoxicity against Homo sapiens (human) Caki1 cells after 48 hr by sulforhodamine B assay; details: CAKI-1, 48 h
SF-295 = test: Cytotoxicity against Homo sapiens (human) SF295 cells after 48 hr by sulforhodamine B assay; details: SF-295, 48 h
SW-620 = test: Cytotoxicity against Homo sapiens (human) SW620 cells after 48 hr by sulforhodamine B assay; details: SW-620, 48 h
HCT-15 = test: Cytotoxicity against Homo sapiens (human) HCT15 cells after 48 hr by sulforhodamine B assay; details: HCT-15, 48 h
HCT-116 = test: Cytotoxicity against Homo sapiens (human) HCT116 cells after 48 hr by sulforhodamine B assay; details: HCT-116, 48 h
HCC 2998 = test: Cytotoxicity against Homo sapiens (human) HCC2998 cells after 48 hr by sulforhodamine B assay; details: HCC 2998, 48 h
NCI-H460 = test: Cytotoxicity against Homo sapiens (human) NCI-H460 cells after 48 hr by sulforhodamine B assay; details: NCI-H460, 48 h
NCI-H322M = test: Cytotoxicity against Homo sapiens (human) NCI-H322M cells after 48 hr by sulforhodamine B assay
NCI-H226 = test: Cytotoxicity against Homo sapiens (human) NCI-H226 cells after 48 hr by sulforhodamine B assay; details: NCI-H226, 48 h
A549 = test: Cytotoxicity against Homo sapiens (human) A549 cells after 48 hr by sulforhodamine B assay; details: A549, 48 h
MOLT-4 = test: Cytotoxicity against Homo sapiens (human) MOLT4 cells after 48 hr by sulforhodamine B assay; details: MOLT-4, 48 h
CCRF-CEM = test: Cytotoxicity against Homo sapiens (human) CCRF-CEM cells after 48 hr by sulforhodamine B assay
MCF7 = test: Cytotoxicity against Homo sapiens (human) MCF7 cells assessed as cell growth at 10^-4 M after 48 hr by Alamar blue assay; details: MCF7, 48 h, read-out: Activity
[2] = read-out: LC50 (the source's name)

## ClCc1ccc(Cn2cnc3c(Cl)nc(Cl)nc32)cc1
A498
  GI50: 12 µM
  LC50 (lethal concentration, 50% cell kill): 52.5 µM
  TGI: 25.1 µM
ACHN
  GI50: 2.34 µM
  TGI: 5.25 µM
ACHN; [2]
  CC50: 14.8 µM
786-0
  GI50: 14.1 µM
  LC50: 61.7 µM
  TGI: 29.5 µM
OVCAR-5
  GI50: 18.2 µM
  TGI: 34.7 µM
OVCAR-5; [2]
  CC50: 66.1 µM
IGROV-1
  GI50: 15.1 µM
  LC50: 60.3 µM
  TGI: 30.2 µM
OVCAR-3
  GI50: 2 µM
  LC50: 9.55 µM
  TGI: 4.37 µM
UACC-257
  GI50: 16.2 µM
  LC50 (concentration killing 50% of cells): 69.2 µM
  TGI: 33.1 µM
SK-MEL-28
  GI50: 2.69 µM
  LC50 (concentration killing 50% of cells): 46.8 µM
  TGI: 6.92 µM
SK-MEL-2
  GI50: 19.9 µM
  LC50 (concentration killing 50% of cells): 95.5 µM
  TGI: 43.6 µM
M14
  GI50: 10.7 µM
  LC50: 53.7 µM
  TGI: 24 µM
U-251
  GI50: 2.04 µM
  LC50 (concentration killing 50% of cells): 7.41 µM
  TGI: 3.89 µM
T47D
  GI50: 1.38 µM
  LC50: > 100 µM
  TGI: 5.5 µM
MDA-MB-435
  GI50: 12.6 µM
  LC50: 50.1 µM
  TGI: 25.1 µM
Hs-578T
  GI50: 2.14 µM
  LC50: > 100 µM
  TGI: 5.75 µM
[1]
  GI50: 16.6 µM
  LC50 (concentration killing 50% of cells): > 100 µM
  TGI: > 100 µM
DU-145
  GI50: 5.62 µM
  LC50: 42.7 µM
  TGI: 17.8 µM
UO-31
  GI50: 19.5 µM
  LC50 (concentration causing 50% net cell kill): 66.1 µM
  TGI: 35.5 µM
TK-10
  GI50: 6.61 µM
  TGI: 20.4 µM
TK-10; [2]
  CC50: 44.7 µM
CAKI-1
  GI50: 9.12 µM
  TGI: 21.4 µM
CAKI-1; [2]
  CC50: 46.8 µM
SF-295
  GI50: 7.24 µM
  TGI: 19.5 µM
SF-295; [2]
  CC50: 44.7 µM
SW-620
  GI50: 3.8 µM
  TGI: 17.4 µM
SW-620; [2]
  CC50: 56.2 µM
HCT-15
  GI50: 1.86 µM
  TGI: 3.8 µM
HCT-15; [2]
  CC50: 7.59 µM
HCT-116
  GI50: 1.7 µM
  TGI: 3.63 µM
HCT-116; [2]
  CC50: 7.59 µM
HCC 2998
  GI50: 10.2 µM
  TGI: 24 µM
HCC 2998; [2]
  CC50: 56.2 µM
NCI-H460
  GI50: 2.4 µM
  TGI: 4.9 µM
NCI-H460; [2]
  CC50: 28.8 µM
NCI-H322M
  GI50: 12.6 µM
  TGI: 25.1 µM
NCI-H322M; [2]
  CC50: 50.1 µM
NCI-H226
  GI50: 3.55 µM
  TGI: 9.55 µM
NCI-H226; [2]
  CC50: 33.9 µM
A549
  GI50: 18.6 µM
  TGI: 37.1 µM
A549; [2]
  CC50: 74.1 µM
MOLT-4
  GI50: 10.5 µM
  TGI: 27.5 µM
MOLT-4; [2]
  CC50: 72.4 µM
CCRF-CEM
  GI50: 1.95 µM
  TGI: 4.57 µM
CCRF-CEM; [2]
  CC50: 14.1 µM
MCF7
  growth at 100 µM: 0%
